# From PubChem BioAssay (NCI)
#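 Cells were grown in 96-well plates and exposed to each compound for 48 hours at five concentrations; endpoints were interpolated linearly between bracketing concentrations, or set to the highest concentration if not reached. The concentration for full growth arrest is given as TGI.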
# Legend:
# Assay in all cases: NCI anticancer screen, dose series, 48 h
# EKVX NSCLC = system: EKVX NSCLC
# OVCAR-3 ovarian = system: OVCAR-3 ovarian
# NCI-H460 lung = system: NCI-H460 lung
# SNB-78 CNS = system: SNB-78 CNS
# HCT-15 colon = system: HCT-15 colon
# SF-295 CNS = system: SF-295 CNS
# NCI-H522 lung = system: NCI-H522 lung
# MOLT-4 leukemia = system: MOLT-4 leukemia
# NCI-H226 lung = system: NCI-H226 lung
# MCF7 breast = system: MCF7 breast
# HS 578T breast = system: HS 578T breast
# MALME-3M melanoma = system: MALME-3M melanoma
# ACHN renal = system: ACHN renal
# CAKI-1 renal = system: CAKI-1 renal
# UO-31 renal = system: UO-31 renal
# UACC-257 melanoma = system: UACC-257 melanoma
# RXF 393 renal = system: RXF 393 renal
# SK-MEL-2 melanoma = system: SK-MEL-2 melanoma
# T-47D breast = system: T-47D breast
# K-562 leukemia = system: K-562 leukemia
# OVCAR-8 ovarian = system: OVCAR-8 ovarian
# A498 renal = system: A498 renal
# HT29 colon = system: HT29 colon
# BT-549 breast = system: BT-549 breast
# RPMI-8226 leukemia = system: RPMI-8226 leukemia
# HCT-116 colon = system: HCT-116 colon
# M14 melanoma = system: M14 melanoma
# IGROV1 ovarian = system: IGROV1 ovarian
# SNB-19 CNS = system: SNB-19 CNS
# HL-60(TB) leukemia = system: HL-60(TB) leukemia
# DU-145 prostate = system: DU-145 prostate
# KM20L2 colon = system: KM20L2 colon
# UACC-62 melanoma = system: UACC-62 melanoma
# TK-10 renal = system: TK-10 renal
# HOP-92 NSCLC = system: HOP-92 NSCLC
# LXFL 529 NSCLC = system: LXFL 529 NSCLC
# SF-268 CNS = system: SF-268 CNS
# HCC-2998 colon = system: HCC-2998 colon
# DMS 114 small cell lung = system: DMS 114 small cell lung
# 786-0 renal = system: 786-0 renal
# M19-MEL melanoma = system: M19-MEL melanoma
# RXF-631 renal = system: RXF-631 renal
# SNB-75 CNS = system: SNB-75 CNS
# LOX IMVI melanoma = system: LOX IMVI melanoma
# SF-539 CNS = system: SF-539 CNS
# OVCAR-4 ovarian = system: OVCAR-4 ovarian
# U251 CNS = system: U251 CNS
# CCRF-CEM leukemia = system: CCRF-CEM leukemia
# XF 498 CNS = system: XF 498 CNS
# SK-MEL-28 melanoma = system: SK-MEL-28 melanoma
# SK-MEL-5 melanoma = system: SK-MEL-5 melanoma
# OVCAR-5 ovarian = system: OVCAR-5 ovarian
# SR leukemia = system: SR leukemia
# MDA-MB-435 = system: MDA-MB-435
# MDA-MB-231 breast = system: MDA-MB-231 breast
# KM12 colon = system: KM12 colon
# COLO 205 colon = system: COLO 205 colon
# A549 NSCLC = system: A549 NSCLC
# HOP-18 NSCLC = system: HOP-18 NSCLC
# SW-620 colon = system: SW-620 colon
# DLD-1 colon = system: DLD-1 colon
# SN12C renal = system: SN12C renal
# NCI-H23 lung = system: NCI-H23 lung
# HOP-62 NSCLC = system: HOP-62 NSCLC
# DMS 273 small cell lung = system: DMS 273 small cell lung
# SK-OV-3 ovarian = system: SK-OV-3 ovarian
smiles,measurement,setting,value
CCn1c2c(n(CC)c1=S)-c1c(n(CC)c(=S)n1CC)SSSS2,TGI,EKVX NSCLC,21.4 µM
same,TGI,OVCAR-3 ovarian,17.9 µM
same,TGI,NCI-H460 lung,> 77.9 µM
same,TGI,SNB-78 CNS,28.1 µM
same,TGI,HCT-15 colon,11.8 µM
same,TGI,SF-295 CNS,> 80.3 µM
same,TGI,NCI-H522 lung,3.76 µM
same,TGI,MOLT-4 leukemia,11.1 µM
same,TGI,NCI-H226 lung,52.2 µM
same,TGI,MCF7 breast,40.7 µM
same,TGI,HS 578T breast,91.1 µM
same,TGI,MALME-3M melanoma,9.08 µM
same,TGI,ACHN renal,16 µM
same,TGI,CAKI-1 renal,33.1 µM
same,TGI,UO-31 renal,21.5 µM
same,TGI,UACC-257 melanoma,22.6 µM
same,TGI,RXF 393 renal,7.55 µM
same,TGI,SK-MEL-2 melanoma,31.2 µM
same,TGI,T-47D breast,5.16 µM
same,TGI,K-562 leukemia,8.97 µM
same,TGI,OVCAR-8 ovarian,23.3 µM
same,TGI,A498 renal,63.8 µM
same,TGI,HT29 colon,29.2 µM
same,TGI,BT-549 breast,29.1 µM
same,TGI,RPMI-8226 leukemia,9.34 µM
same,TGI,HCT-116 colon,11 µM
same,TGI,M14 melanoma,18.1 µM
same,TGI,IGROV1 ovarian,34.3 µM
same,TGI,SNB-19 CNS,> 100 µM
same,TGI,HL-60(TB) leukemia,8.76 µM
same,TGI,DU-145 prostate,> 100 µM
same,TGI,KM20L2 colon,29.5 µM
same,TGI,UACC-62 melanoma,18.6 µM
same,TGI,TK-10 renal,28.4 µM
same,TGI,HOP-92 NSCLC,9.71 µM
same,TGI,LXFL 529 NSCLC,5.97 µM
same,TGI,SF-268 CNS,44.4 µM
same,TGI,HCC-2998 colon,49.4 µM
same,TGI,DMS 114 small cell lung,38.1 µM
same,TGI,786-0 renal,28.6 µM
same,TGI,M19-MEL melanoma,22.1 µM
same,TGI,RXF-631 renal,24.4 µM
same,TGI,SNB-75 CNS,26.6 µM
same,TGI,LOX IMVI melanoma,23.2 µM
same,TGI,SF-539 CNS,28.2 µM
same,TGI,OVCAR-4 ovarian,20.1 µM
same,TGI,U251 CNS,45.5 µM
same,TGI,CCRF-CEM leukemia,9.42 µM
same,TGI,XF 498 CNS,4.08 µM
same,TGI,SK-MEL-28 melanoma,18.7 µM
same,TGI,SK-MEL-5 melanoma,43.1 µM
same,TGI,OVCAR-5 ovarian,27.8 µM
same,TGI,SR leukemia,9.17 µM
same,TGI,MDA-MB-435,27.5 µM
same,TGI,MDA-MB-231 breast,10 µM
same,TGI,KM12 colon,35.9 µM
same,TGI,COLO 205 colon,19.1 µM
same,TGI,A549 NSCLC,68.4 µM
same,TGI,HOP-18 NSCLC,22 µM
same,TGI,SW-620 colon,3.29 µM
same,TGI,DLD-1 colon,5.73 µM
same,TGI,SN12C renal,24 µM
same,TGI,NCI-H23 lung,22.3 µM
same,TGI,HOP-62 NSCLC,> 100 µM
same,TGI,DMS 273 small cell lung,33.1 µM
same,TGI,SK-OV-3 ovarian,98.9 µM
CC1=CC(=O)CCC2(C)C1CC[C@@H]2OC=O (stereo partly specified),TGI,EKVX NSCLC,> 100 µM
same,TGI,OVCAR-3 ovarian,> 100 µM
same,TGI,NCI-H460 lung,> 100 µM
same,TGI,SNB-78 CNS,> 100 µM
same,TGI,SF-295 CNS,> 100 µM
same,TGI,NCI-H522 lung,> 100 µM
same,TGI,MOLT-4 leukemia,> 100 µM
same,TGI,NCI-H226 lung,> 100 µM
same,TGI,ACHN renal,> 100 µM
same,TGI,CAKI-1 renal,> 100 µM
same,TGI,UO-31 renal,> 100 µM
same,TGI,UACC-257 melanoma,> 100 µM
same,TGI,RXF 393 renal,> 100 µM
same,TGI,SK-MEL-2 melanoma,> 100 µM
same,TGI,K-562 leukemia,> 100 µM
same,TGI,OVCAR-8 ovarian,> 100 µM
same,TGI,HT29 colon,> 100 µM
same,TGI,RPMI-8226 leukemia,> 100 µM
same,TGI,HCT-116 colon,> 100 µM
same,TGI,M14 melanoma,> 100 µM
same,TGI,IGROV1 ovarian,> 100 µM
same,TGI,SNB-19 CNS,> 100 µM
same,TGI,HL-60(TB) leukemia,> 100 µM
same,TGI,KM20L2 colon,> 100 µM
same,TGI,UACC-62 melanoma,> 100 µM
same,TGI,TK-10 renal,> 100 µM
same,TGI,HOP-92 NSCLC,> 100 µM
same,TGI,LXFL 529 NSCLC,> 100 µM
same,TGI,SF-268 CNS,> 100 µM
same,TGI,HCC-2998 colon,> 100 µM
same,TGI,DMS 114 small cell lung,> 100 µM
same,TGI,786-0 renal,> 100 µM
same,TGI,M19-MEL melanoma,> 100 µM
same,TGI,RXF-631 renal,> 100 µM
same,TGI,SNB-75 CNS,> 100 µM
same,TGI,LOX IMVI melanoma,> 100 µM
same,TGI,SF-539 CNS,> 100 µM
same,TGI,OVCAR-4 ovarian,> 100 µM
same,TGI,U251 CNS,> 100 µM
same,TGI,CCRF-CEM leukemia,> 100 µM
same,TGI,XF 498 CNS,> 100 µM
same,TGI,SK-MEL-28 melanoma,> 100 µM
same,TGI,SK-MEL-5 melanoma,> 100 µM
same,TGI,OVCAR-5 ovarian,> 100 µM
same,TGI,SR leukemia,> 100 µM
same,TGI,KM12 colon,> 100 µM
same,TGI,COLO 205 colon,> 100 µM
same,TGI,A549 NSCLC,> 100 µM
same,TGI,HOP-18 NSCLC,> 100 µM
same,TGI,SW-620 colon,> 100 µM
same,TGI,DLD-1 colon,> 100 µM
same,TGI,SN12C renal,> 100 µM
same,TGI,NCI-H23 lung,> 100 µM
same,TGI,HOP-62 NSCLC,> 100 µM
same,TGI,DMS 273 small cell lung,> 100 µM
same,TGI,SK-OV-3 ovarian,> 100 µM
COC(=O)C(CCCC1(c2ccccc2)OCCO1)C(C)=O (stereo unspecified),TGI,EKVX NSCLC,> 100 µM
same,TGI,OVCAR-3 ovarian,> 100 µM
same,TGI,NCI-H460 lung,> 100 µM
same,TGI,SNB-78 CNS,> 100 µM
same,TGI,HCT-15 colon,> 100 µM
same,TGI,SF-295 CNS,> 100 µM
same,TGI,NCI-H522 lung,> 100 µM
same,TGI,MOLT-4 leukemia,> 100 µM
same,TGI,NCI-H226 lung,> 100 µM
same,TGI,MALME-3M melanoma,> 100 µM
same,TGI,ACHN renal,> 100 µM
same,TGI,UO-31 renal,> 100 µM
same,TGI,UACC-257 melanoma,> 100 µM
same,TGI,RXF 393 renal,> 100 µM
same,TGI,SK-MEL-2 melanoma,> 100 µM
same,TGI,K-562 leukemia,> 100 µM
same,TGI,OVCAR-8 ovarian,> 100 µM
same,TGI,A498 renal,> 100 µM
same,TGI,HT29 colon,> 100 µM
same,TGI,HCT-116 colon,> 100 µM
same,TGI,M14 melanoma,> 100 µM
same,TGI,IGROV1 ovarian,> 100 µM
same,TGI,SNB-19 CNS,> 100 µM
same,TGI,HL-60(TB) leukemia,> 100 µM
same,TGI,KM20L2 colon,> 100 µM
same,TGI,TK-10 renal,> 100 µM
same,TGI,LXFL 529 NSCLC,> 100 µM
same,TGI,SF-268 CNS,> 100 µM
same,TGI,HCC-2998 colon,> 100 µM
same,TGI,786-0 renal,> 100 µM
same,TGI,M19-MEL melanoma,> 100 µM
same,TGI,RXF-631 renal,> 100 µM
same,TGI,SNB-75 CNS,> 100 µM
same,TGI,LOX IMVI melanoma,> 100 µM
same,TGI,SF-539 CNS,> 100 µM
same,TGI,OVCAR-4 ovarian,> 100 µM
same,TGI,U251 CNS,> 100 µM
same,TGI,CCRF-CEM leukemia,> 100 µM
same,TGI,XF 498 CNS,> 100 µM
same,TGI,SK-MEL-28 melanoma,> 100 µM
same,TGI,SK-MEL-5 melanoma,> 100 µM
same,TGI,OVCAR-5 ovarian,> 100 µM
same,TGI,SR leukemia,> 100 µM
same,TGI,KM12 colon,> 100 µM
same,TGI,COLO 205 colon,> 100 µM
same,TGI,A549 NSCLC,> 100 µM
same,TGI,HOP-18 NSCLC,> 100 µM
same,TGI,SW-620 colon,> 100 µM
same,TGI,DLD-1 colon,> 100 µM
same,TGI,SN12C renal,> 100 µM
same,TGI,NCI-H23 lung,> 100 µM
same,TGI,HOP-62 NSCLC,> 100 µM
same,TGI,DMS 273 small cell lung,> 100 µM
same,TGI,SK-OV-3 ovarian,> 100 µM
